Numbers after ± are expanded uncertainties.
Assay: xn = mol fraction of the nth substance listed
Conditions: Liquid

CCOC(F)(C(F)(F)C(F)(F)C(F)(F)F)C(F)(C(F)(F)F)C(F)(F)F (stereo not given) [2-trifluoromethyl-3-ethoxydodecafluorohexane] + CC(C)OC(C)C
viscosity (293.15 K, 100 kPa, Capillary tube (Ostwald / Ubbelohde) method, x1 = 0.25): 0.483 ± 0.01 mPa·s
viscosity (293.15 K, 100 kPa, Capillary tube (Ostwald / Ubbelohde) method, x1 = 0.375): 0.573 ± 0.012 mPa·s
viscosity (293.15 K, 100 kPa, Capillary tube (Ostwald / Ubbelohde) method, x1 = 0.5): 0.685 ± 0.014 mPa·s
viscosity (293.15 K, 100 kPa, Capillary tube (Ostwald / Ubbelohde) method, x1 = 0.625): 0.818 ± 0.017 mPa·s
viscosity (293.15 K, 100 kPa, Capillary tube (Ostwald / Ubbelohde) method, x1 = 0.75): 0.985 ± 0.021 mPa·s
viscosity (293.15 K, 100 kPa, Capillary tube (Ostwald / Ubbelohde) method, x1 = 1): 1.369 ± 0.029 mPa·s
viscosity (293.15 K, 20000 kPa, Falling or rolling sphere viscometry, x1 = 0.25): 0.602 ± 0.013 mPa·s
viscosity (293.15 K, 20000 kPa, Falling or rolling sphere viscometry, x1 = 0.375): 0.751 ± 0.017 mPa·s
viscosity (293.15 K, 20000 kPa, Falling or rolling sphere viscometry, x1 = 0.5): 0.939 ± 0.021 mPa·s
viscosity (293.15 K, 20000 kPa, Falling or rolling sphere viscometry, x1 = 0.625): 1.1 ± 0.024 mPa·s
viscosity (293.15 K, 20000 kPa, Falling or rolling sphere viscometry, x1 = 0.75): 1.315 ± 0.029 mPa·s
viscosity (293.15 K, 20000 kPa, Falling or rolling sphere viscometry, x1 = 1): 1.894 ± 0.043 mPa·s
viscosity (293.15 K, 40000 kPa, Falling or rolling sphere viscometry, x1 = 0.25): 0.732 ± 0.016 mPa·s
viscosity (293.15 K, 40000 kPa, Falling or rolling sphere viscometry, x1 = 0.375): 0.944 ± 0.021 mPa·s
viscosity (293.15 K, 40000 kPa, Falling or rolling sphere viscometry, x1 = 0.5): 1.198 ± 0.026 mPa·s
viscosity (293.15 K, 40000 kPa, Falling or rolling sphere viscometry, x1 = 0.625): 1.412 ± 0.031 mPa·s
viscosity (293.15 K, 40000 kPa, Falling or rolling sphere viscometry, x1 = 0.75): 1.727 ± 0.038 mPa·s
viscosity (293.15 K, 40000 kPa, Falling or rolling sphere viscometry, x1 = 1): 2.645 ± 0.059 mPa·s
viscosity (293.15 K, 60000 kPa, Falling or rolling sphere viscometry, x1 = 0.25): 0.883 ± 0.019 mPa·s
viscosity (293.15 K, 60000 kPa, Falling or rolling sphere viscometry, x1 = 0.375): 1.171 ± 0.026 mPa·s
viscosity (293.15 K, 60000 kPa, Falling or rolling sphere viscometry, x1 = 0.5): 1.49 ± 0.033 mPa·s
viscosity (293.15 K, 60000 kPa, Falling or rolling sphere viscometry, x1 = 0.625): 1.802 ± 0.04 mPa·s
viscosity (293.15 K, 60000 kPa, Falling or rolling sphere viscometry, x1 = 0.75): 2.255 ± 0.05 mPa·s
viscosity (293.15 K, 60000 kPa, Falling or rolling sphere viscometry, x1 = 1): 3.622 ± 0.081 mPa·s
viscosity (293.15 K, 80000 kPa, Falling or rolling sphere viscometry, x1 = 0.25): 1.058 ± 0.023 mPa·s
viscosity (293.15 K, 80000 kPa, Falling or rolling sphere viscometry, x1 = 0.375): 1.435 ± 0.031 mPa·s
viscosity (293.15 K, 80000 kPa, Falling or rolling sphere viscometry, x1 = 0.5): 1.82 ± 0.04 mPa·s
viscosity (293.15 K, 80000 kPa, Falling or rolling sphere viscometry, x1 = 0.625): 2.291 ± 0.05 mPa·s
viscosity (293.15 K, 80000 kPa, Falling or rolling sphere viscometry, x1 = 0.75): 2.936 ± 0.065 mPa·s
viscosity (293.15 K, 80000 kPa, Falling or rolling sphere viscometry, x1 = 1): 4.894 ± 0.11 mPa·s
viscosity (293.15 K, 100000 kPa, Falling or rolling sphere viscometry, x1 = 0.25): 1.26 ± 0.028 mPa·s
viscosity (293.15 K, 100000 kPa, Falling or rolling sphere viscometry, x1 = 0.375): 1.741 ± 0.038 mPa·s
viscosity (293.15 K, 100000 kPa, Falling or rolling sphere viscometry, x1 = 0.5): 2.197 ± 0.048 mPa·s
viscosity (293.15 K, 100000 kPa, Falling or rolling sphere viscometry, x1 = 0.625): 2.902 ± 0.064 mPa·s
viscosity (293.15 K, 100000 kPa, Falling or rolling sphere viscometry, x1 = 0.75): 3.814 ± 0.085 mPa·s
viscosity (293.15 K, 100000 kPa, Falling or rolling sphere viscometry, x1 = 1): 6.553 ± 0.14 mPa·s
viscosity (313.15 K, 100 kPa, Capillary tube (Ostwald / Ubbelohde) method, x1 = 0.25): 0.386 ± 0.008 mPa·s
viscosity (313.15 K, 100 kPa, Capillary tube (Ostwald / Ubbelohde) method, x1 = 0.375): 0.441 ± 0.009 mPa·s
viscosity (313.15 K, 100 kPa, Capillary tube (Ostwald / Ubbelohde) method, x1 = 0.5): 0.526 ± 0.011 mPa·s
viscosity (313.15 K, 100 kPa, Capillary tube (Ostwald / Ubbelohde) method, x1 = 0.625): 0.617 ± 0.013 mPa·s
viscosity (313.15 K, 100 kPa, Capillary tube (Ostwald / Ubbelohde) method, x1 = 0.75): 0.735 ± 0.015 mPa·s
viscosity (313.15 K, 100 kPa, Capillary tube (Ostwald / Ubbelohde) method, x1 = 1): 0.983 ± 0.021 mPa·s
viscosity (313.15 K, 20000 kPa, Falling or rolling sphere viscometry, x1 = 0.25): 0.476 ± 0.01 mPa·s
viscosity (313.15 K, 20000 kPa, Falling or rolling sphere viscometry, x1 = 0.375): 0.598 ± 0.013 mPa·s
viscosity (313.15 K, 20000 kPa, Falling or rolling sphere viscometry, x1 = 0.5): 0.701 ± 0.015 mPa·s
viscosity (313.15 K, 20000 kPa, Falling or rolling sphere viscometry, x1 = 0.625): 0.821 ± 0.018 mPa·s
viscosity (313.15 K, 20000 kPa, Falling or rolling sphere viscometry, x1 = 0.75): 0.979 ± 0.022 mPa·s
viscosity (313.15 K, 20000 kPa, Falling or rolling sphere viscometry, x1 = 1): 1.356 ± 0.03 mPa·s
viscosity (313.15 K, 40000 kPa, Falling or rolling sphere viscometry, x1 = 0.25): 0.587 ± 0.013 mPa·s
viscosity (313.15 K, 40000 kPa, Falling or rolling sphere viscometry, x1 = 0.375): 0.748 ± 0.016 mPa·s
viscosity (313.15 K, 40000 kPa, Falling or rolling sphere viscometry, x1 = 0.5): 0.894 ± 0.02 mPa·s
viscosity (313.15 K, 40000 kPa, Falling or rolling sphere viscometry, x1 = 0.625): 1.059 ± 0.023 mPa·s
viscosity (313.15 K, 40000 kPa, Falling or rolling sphere viscometry, x1 = 0.75): 1.292 ± 0.029 mPa·s
viscosity (313.15 K, 40000 kPa, Falling or rolling sphere viscometry, x1 = 1): 1.869 ± 0.042 mPa·s
viscosity (313.15 K, 60000 kPa, Falling or rolling sphere viscometry, x1 = 0.25): 0.712 ± 0.016 mPa·s
viscosity (313.15 K, 60000 kPa, Falling or rolling sphere viscometry, x1 = 0.375): 0.917 ± 0.02 mPa·s
viscosity (313.15 K, 60000 kPa, Falling or rolling sphere viscometry, x1 = 0.5): 1.118 ± 0.024 mPa·s
viscosity (313.15 K, 60000 kPa, Falling or rolling sphere viscometry, x1 = 0.625): 1.339 ± 0.029 mPa·s
viscosity (313.15 K, 60000 kPa, Falling or rolling sphere viscometry, x1 = 0.75): 1.668 ± 0.037 mPa·s
viscosity (313.15 K, 60000 kPa, Falling or rolling sphere viscometry, x1 = 1): 2.51 ± 0.056 mPa·s
viscosity (313.15 K, 80000 kPa, Falling or rolling sphere viscometry, x1 = 0.25): 0.853 ± 0.019 mPa·s
viscosity (313.15 K, 80000 kPa, Falling or rolling sphere viscometry, x1 = 0.375): 1.104 ± 0.024 mPa·s
viscosity (313.15 K, 80000 kPa, Falling or rolling sphere viscometry, x1 = 0.5): 1.376 ± 0.03 mPa·s
viscosity (313.15 K, 80000 kPa, Falling or rolling sphere viscometry, x1 = 0.625): 1.669 ± 0.037 mPa·s
viscosity (313.15 K, 80000 kPa, Falling or rolling sphere viscometry, x1 = 0.75): 2.119 ± 0.047 mPa·s
viscosity (313.15 K, 80000 kPa, Falling or rolling sphere viscometry, x1 = 1): 3.31 ± 0.073 mPa·s
viscosity (313.15 K, 100000 kPa, Falling or rolling sphere viscometry, x1 = 0.25): 1.014 ± 0.022 mPa·s
viscosity (313.15 K, 100000 kPa, Falling or rolling sphere viscometry, x1 = 0.375): 1.312 ± 0.029 mPa·s
viscosity (313.15 K, 100000 kPa, Falling or rolling sphere viscometry, x1 = 0.5): 1.677 ± 0.037 mPa·s
viscosity (313.15 K, 100000 kPa, Falling or rolling sphere viscometry, x1 = 0.625): 2.058 ± 0.045 mPa·s
